Data: BindingDB's records for doi:10.1016/0922-4106(94)90075-2 (University of Pisa, 1994)

Columns and labels:
[1] = target: T1, Muscarinic acetylcholine receptor M5 (Homo sapiens, UniProt P08912)
T1 sequence (P08912 whole entry): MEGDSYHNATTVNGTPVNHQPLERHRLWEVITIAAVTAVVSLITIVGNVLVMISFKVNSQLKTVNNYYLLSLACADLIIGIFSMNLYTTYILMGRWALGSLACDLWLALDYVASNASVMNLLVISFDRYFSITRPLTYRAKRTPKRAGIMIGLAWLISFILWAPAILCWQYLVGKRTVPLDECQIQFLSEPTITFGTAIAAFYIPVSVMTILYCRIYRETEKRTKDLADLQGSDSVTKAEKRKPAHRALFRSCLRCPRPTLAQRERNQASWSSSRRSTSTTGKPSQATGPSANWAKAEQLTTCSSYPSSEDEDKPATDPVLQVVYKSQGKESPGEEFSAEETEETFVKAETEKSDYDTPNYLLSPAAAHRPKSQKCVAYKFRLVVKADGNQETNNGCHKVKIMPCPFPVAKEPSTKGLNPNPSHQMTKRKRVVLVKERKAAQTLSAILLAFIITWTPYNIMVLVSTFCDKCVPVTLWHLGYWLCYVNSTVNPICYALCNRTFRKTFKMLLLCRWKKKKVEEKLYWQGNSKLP

[2] = target: T2, Muscarinic acetylcholine receptor M4 (Homo sapiens, UniProt P08173)
T2 sequence (P08173 whole entry): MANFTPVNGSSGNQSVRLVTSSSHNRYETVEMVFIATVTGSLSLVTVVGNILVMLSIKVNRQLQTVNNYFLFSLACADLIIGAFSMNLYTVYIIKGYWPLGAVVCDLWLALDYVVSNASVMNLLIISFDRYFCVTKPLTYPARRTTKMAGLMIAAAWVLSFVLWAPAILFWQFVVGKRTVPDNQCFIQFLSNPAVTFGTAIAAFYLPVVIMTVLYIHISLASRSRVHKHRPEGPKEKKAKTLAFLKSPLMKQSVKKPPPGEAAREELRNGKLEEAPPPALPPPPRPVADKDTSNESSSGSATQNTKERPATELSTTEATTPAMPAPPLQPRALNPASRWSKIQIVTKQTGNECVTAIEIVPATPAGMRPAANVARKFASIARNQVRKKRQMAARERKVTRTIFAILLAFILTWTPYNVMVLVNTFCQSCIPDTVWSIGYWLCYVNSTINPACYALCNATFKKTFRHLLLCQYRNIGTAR

[3] = target: Muscarinic acetylcholine receptor M3 (Homo sapiens, UniProt P20309)
Chain of Muscarinic acetylcholine receptor M3 (P20309 whole entry): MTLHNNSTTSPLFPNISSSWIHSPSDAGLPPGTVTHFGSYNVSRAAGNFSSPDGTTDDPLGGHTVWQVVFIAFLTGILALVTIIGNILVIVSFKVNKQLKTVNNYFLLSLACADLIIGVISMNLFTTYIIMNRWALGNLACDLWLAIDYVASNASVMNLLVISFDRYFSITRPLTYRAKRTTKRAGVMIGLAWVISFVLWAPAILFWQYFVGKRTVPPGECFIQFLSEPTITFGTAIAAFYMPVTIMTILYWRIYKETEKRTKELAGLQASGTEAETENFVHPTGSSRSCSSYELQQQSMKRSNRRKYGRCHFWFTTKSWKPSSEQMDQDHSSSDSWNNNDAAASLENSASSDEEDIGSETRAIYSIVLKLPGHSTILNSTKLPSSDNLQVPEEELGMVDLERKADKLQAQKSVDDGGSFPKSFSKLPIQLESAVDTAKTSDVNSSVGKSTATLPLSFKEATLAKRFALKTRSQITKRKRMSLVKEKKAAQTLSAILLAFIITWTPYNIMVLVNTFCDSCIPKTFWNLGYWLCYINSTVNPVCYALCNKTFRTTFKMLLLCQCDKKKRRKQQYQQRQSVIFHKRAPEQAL

[4] = target: T3, Muscarinic acetylcholine receptor M1 (Homo sapiens, UniProt P11229)
T3 sequence (P11229 whole entry): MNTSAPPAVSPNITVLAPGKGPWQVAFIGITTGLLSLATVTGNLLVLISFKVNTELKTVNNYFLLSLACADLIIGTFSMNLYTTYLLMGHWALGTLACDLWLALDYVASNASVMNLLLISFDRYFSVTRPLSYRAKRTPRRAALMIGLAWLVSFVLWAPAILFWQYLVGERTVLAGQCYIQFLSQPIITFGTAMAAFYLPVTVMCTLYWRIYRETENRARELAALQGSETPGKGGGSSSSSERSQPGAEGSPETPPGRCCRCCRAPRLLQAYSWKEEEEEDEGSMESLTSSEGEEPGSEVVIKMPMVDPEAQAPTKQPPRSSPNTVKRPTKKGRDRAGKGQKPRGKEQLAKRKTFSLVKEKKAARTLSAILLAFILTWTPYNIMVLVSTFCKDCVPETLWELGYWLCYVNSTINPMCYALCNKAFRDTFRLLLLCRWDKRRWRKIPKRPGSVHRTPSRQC

SMILES | Ki [1] [nM] | Ki [2] [nM] | Ki [3] [nM] | Ki [4] [nM]
COc1ccccc1CNCCCCCCNCCCCCCCCNCCCCCCNCc1ccccc1OC [METHOCTRAMINE] | 313 | 38 | 277 | 
CN(CCCCCCCCN(C)CCCCCCN(CC(=O)N1c2ccccc2C(=O)Nc2cccnc21)CC(=O)N1c2ccccc2C(=O)Nc2cccnc21)CCCCCCNCC(=O)N1c2ccccc2C(=O)Nc2cccnc21 [NSC_132947] | 33.9 | 6.41 | 38.2 | 1.58
